Measurements from patent publication US20100305068A1, “COMPOUNDS AND METHODS FOR MODULATING PROTEIN TRAFFICKING” (priority 2006, published 2010).
Like-named read-outs stand apart in the source and are kept apart here.

System: pdr5 ypt1^ts cells
Assay: microbe, parasite or virus in culture
Type: cell-based, yeast
Conditions: 37° C.; for optical density, 3.13 uM / optical density, 12.5 uM / optical density, 50 uM: Table 3, background (0 uM) 0.077; for optical density, 3.13 uM: 3.13 uM compound; for optical density, 12.5 uM: 12.5 uM compound; for optical density, 50 uM: 50 uM compound; for optical density, ypt1-ts, 0.39 / optical density, ypt1-ts, 0.78 / optical density, ypt1-ts, 1.56 / optical density, ypt1-ts, 3.13 / optical density, ypt1-ts, 6.25 / optical density, ypt1-ts, 12.5 / optical density, ypt1-ts, 25 / minimal effective concentration: Table 2; for optical density, ypt1-ts, 0.39: 0.39 μM compound; for optical density, ypt1-ts, 0.39 / optical density, ypt1-ts, 0.78 / optical density, ypt1-ts, 1.56 / optical density, ypt1-ts, 3.13 / optical density, ypt1-ts, 6.25 / optical density, ypt1-ts, 12.5 / optical density, ypt1-ts, 25: background (0 μM) 0.058; for optical density, ypt1-ts, 0.78: 0.78 μM compound; for optical density, ypt1-ts, 1.56: 1.56 μM compound; for optical density, ypt1-ts, 3.13: 3.13 μM compound; for optical density, ypt1-ts, 6.25: 6.25 μM compound; for optical density, ypt1-ts, 12.5: 12.5 μM compound; for optical density, ypt1-ts, 25: 25 μM compound; for minimal effective concentration: lowest concentration tested giving growth above the 0 μM background, read-out: ypt1-ts MRC (minimal rescue concentration)
How it was run: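 Whole-cell yeast growth-rescue screen: pdr5 ypt1^ts cells (efflux pump inactivated), growth-arrested at 37° C., cultured with compounds at 37° C. Restoration of growth read by optical density.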

Compound	optical density, 3.13 uM	optical density, 12.5 uM	optical density, 50 uM	optical density, ypt1-ts, 0.39	optical density, ypt1-ts, 0.78	optical density, ypt1-ts, 1.56	optical density, ypt1-ts, 3.13	optical density, ypt1-ts, 6.25	optical density, ypt1-ts, 12.5	optical density, ypt1-ts, 25	minimal effective concentration	minimal effective concentration (Saccharomyces cerevisiae)
COc1ccc2c(c1)OCC(Cc1ccc(OC)c(OC(C)=O)c1)C2=O (stereo not drawn) [DEOXY- SAPPANONE B 7,3′-DI- METHYL ETHER ACETATE]	0.137	0.17	0.374	–	–	–	–	–	–	–	–	–
C=C1C([C@@]2(C)[C@@H](C)CC(=O)C(C)(C)[C@@H]2C(OC(C)=O)C(=O)OC)CC[C@@]2(C)[C@H](c3ccoc3)OC(=O)C[C@]12O (stereo partly drawn) [6-ACETOXY- […] METHYL ESTER]	0.131	0.364	0.489	–	–	–	–	–	–	–	–	–
AKLAVINE HYDROCHLORIDE	–	–	–	0.095	0.136	0.078	0.088	0.101	0.145	0.246	12.5 µM	–
COc1ccc(C(=O)c2ccccc2O)c(O)c1 [DIOXY- BENZONE, reference compound]	0.088	0.12	0.579	–	–	–	–	–	–	–	–	–
COc1ccc2c(c1OC)OC[C@@H](c1ccc(OC)c(OC)c1OC)C2 [DUARTIN, DIMETHYL ETHER]	–	–	–	0.166	0.092	0.111	0.14	0.239	0.287	0.474	–	3.13 µM
COc1c2c(cc3c1OCO3)[C@]13C=C[C@H](OC)C[C@H]1N(C2)C[C@@H]3O [AMBELLINE]	0.071	0.302	0.057	–	–	–	–	–	–	–	–	–
O=C([O-])Cc1ccccc1Nc1c(Cl)cccc1Cl.[Na+] [DICLOFENAC SODIUM, reference compound]	–	–	–	0.085	0.072	0.077	0.089	0.092	0.126	0.242	–	12.5 µM
